The text below walks through data of publication PMC12154787, “Comprehensive Evaluation of the Effects of Hot Air Drying Temperature on the Chemical Composition, Flavor Characteristics and Biological Activity of Houttuynia cordata Thunb” (Foods, 2025).

Data set [1] can be described thus: Metabolite identification in rat serum by UPLC-LTQ-Orbitrap-MS2 after HCT extract. As to all read-outs here: key: +: detected; —: undetected. The format is in vivo, SD rats. The following applies: for Metabolite detected in Serum, 50H: 50H group (600 mg/kg BW 50 °C hot-air dried HCT extract); for Metabolite detected in Serum, FDH: FDH group (600 mg/kg BW freeze-dried HCT extract). The method, then:
The chromatographic separation was performed on an ACQUITY UPLC BEH C18 column (2.1 × 100 mm, 1.7 μm) maintained at 25 °C. […] The mobile phase flow rate was maintained at 300 μL/min with a 2 μL injection volume.
Mass spectrometric detection was carried out using an LTQ-Orbitrap system equipped with a HESI-II source operating in both positive and negative ionization modes. Full scan MS data were acquired over m/z 50–2000 with mass resolution set to 30,000 (at m/z 400). For structural elucidation, data-dependent MS/MS scans were triggered using a normalized collision energy of 45 eV in the CID cell. The diode array detector was simultaneously monitored at 280 nm and 320 nm. All instrumental operations and data acquisition were controlled by Xcalibur v2.0 software (Thermo Scientific).
The animal study protocol was approved by the Animal Ethics Committee of Jiangxi University of Chinese Medicine (Approval No. TEMPOR20230112). A total of 24 female SD rats (200 ± 20 g) were obtained from the Laboratory Animal Center of Jiangxi University of Chinese Medicine (Nanchang, China). […] After one week of acclimatization with ad libitum access to sterilized food and water, the rats were randomly divided into three groups (n = 8), including a negative control, FDH: freeze-dried HCT extract (treated with 600 mg/kg BW freeze-dried HCT extracts), 50H: 50 °C hot-air dried HCT extract (treated with 600 mg/kg BW 50 °C hot-air dried HCT extracts). Blood collection and the pretreatment of serum were conducted following our previously published protocols. The identification and quantification of metabolites in rat samples were performed using analytical methodologies consistent with those employed in our previous investigations.

Data set [2] in a line: Pharmacokinetics of HCT constituents in rat plasma after a single dose of HCT extract. It is filed as in vivo, SD rats. As for the experimental part:
The quantification of target compounds was conducted using an LC-TQ5200 triple quadrupole mass spectrometer (Hexin Instruments, Guangzhou, China) coupled with a HILIC column (100 × 2.1 mm, 1.8 μm; ANPEL, Shanghai, China). Chromatographic separation was achieved under isocratic conditions with a mobile phase comprising (A) 0.1% formic acid in water and (B) acetonitrile (50:50, v/v) for 4 min at a flow rate of 0.3 mL/min. The column temperature was maintained at 30 °C with a 10 μL injection volume.
Mass spectrometric detection was performed in positive electrospray ionization (ESI) mode with multiple reaction monitoring (MRM). The optimized ion source parameters were as follows: drying gas temperature, 500 °C; spray voltage, 5500 V; nebulizer gas pressure, 70 psi (482.3 kPa); drying gas flow, 8 L/min; and curtain gas flow, 3 L/min. The collision cell operated with 0.4 mL/min collision gas flow under the following voltage settings: curtain plate 800 V, orifice 70 V, detector 2300 V, with cell entrance and exit voltages of 30 V and 1 V, respectively. All analyses were performed with three replicates (n = 3).
The animal study protocol was approved by the Animal Ethics Committee of Jiangxi University of Chinese Medicine (Approval No. TEMPOR20230112). A total of 24 female SD rats (200 ± 20 g) were obtained from the Laboratory Animal Center of Jiangxi University of Chinese Medicine (Nanchang, China). Prior to experimentation, the rats were acclimated for 7 days in an air-conditioned room maintained at 24 ± 1 °C with a 12 h light/dark cycle. After one week of acclimatization with ad libitum access to sterilized food and water, the rats were randomly divided into three groups (n = 8), including a negative control, FDH: freeze-dried HCT extract (treated with 600 mg/kg BW freeze-dried HCT extracts), 50H: 50 °C hot-air dried HCT extract (treated with 600 mg/kg BW 50 °C hot-air dried HCT extracts). Blood collection and the pretreatment of serum were conducted following our previously published protocols. The identification and quantification of metabolites in rat samples were performed using analytical methodologies consistent with those employed in our previous investigations.

Where [3] appears, read: female, SD, 50H: 600 mg/kg BW 50 °C hot-air dried HCT extract.
[4] abbreviates: female, SD, rat, plasma, 600 mg/kg, 50H: 600 mg/kg BW 50 °C hot-air dried HCT extract.
Setting [5] is: female, SD, rat, plasma, 600 mg/kg, FDH: 600 mg/kg BW freeze-dried HCT extract.
Where [6] appears, read: 50H: 600 mg/kg BW 50 °C hot-air dried HCT extract.

As usually defined, the Tmax is the time at which the peak concentration occurs. Broadly, the AUC is concentration integrated over time. The low end stands for less exposure, the high end for more exposure. A word on the Cmax: it is the peak of the concentration-time curve. For orientation: half-life means the time needed for the level to fall by half in the phase considered. Read a high half-life as slow loss.

Take `O=C(O)CCc1ccc(O)c(O)c1` [M10, dihydrocaffeic acid]: in data set [1], the “Metabolite detected in Serum, 50H” value is “+” and the “Metabolite detected in Serum, FDH” value is “+”.
Turning to `Nc1ccc(CCC(=O)O)c(C(=O)O)c1` [M14], in data set [1], the “Metabolite detected in Serum, 50H” value is “+” and the “Metabolite detected in Serum, FDH” value is reported as “+”.
Take `CCCCCCCCC=CCCCCCCCC(=O)O` [M37, 9-octadecenoic acid]: in data set [1], the “Metabolite detected in Serum, 50H” value is “+” and the “Metabolite detected in Serum, FDH” value is “+”.
In the case of `O=C(O)c1ccc(O)c(O)c1` [M2, protocatechuic acid], in data set [1], the “Metabolite detected in Serum, 50H” value is “+” and the “Metabolite detected in Serum, FDH” value is given as “+”.
In the case of `CC(O)CC(=O)O` (stereo not shown) [M13, 3-hydroxybutyrate], the “Metabolite detected in Serum, 50H” value in data set [1] was “+”.
On to `COc1cc(C(=O)O)ccc1OC(C)=O` [M3, 4-acetyloxy-3-methoxybenzoic acid], for which, in data set [1], the “Metabolite detected in Serum, 50H” value is “+” and the “Metabolite detected in Serum, FDH” value is “+”.
For `CCCCCCCCCC(=O)CC(=O)O` [M27, decanoyl acetic acid], in data set [1], the “Metabolite detected in Serum, 50H” value is “+” and the “Metabolite detected in Serum, FDH” value is “+”.
Consider `O=c1cc(-c2ccc(O)cc2)oc2cc(O)cc(O)c12` [M23, apigenin], for which, in data set [1], the “Metabolite detected in Serum, FDH” value is “+”.
For `O=C(/C=C/c1ccc(O)c(O)c1)O[C@@H]1C[C@](O)(C(=O)O)C[C@@H](O)[C@H]1O` [Chlorogenic acid, chlorogenic acid], the time to peak (Tmax) in data set [2] (setting [3]) was found to be 1.5 h. In data set [2] (setting [4]), this compound showed an exposure (AUC) of 0.222 ± 0.0225 µM·h, a Cmax of 84.4 ± 2.26 nM and a half-life of 2.05 ± 0.62 h. In addition, in data set [2] (setting [5]), the area under the curve (AUC) worked out at 0.231 ± 0.00787 µM·h, the peak level (Cmax) was 104 ± 9.47 nM and the half-life was 2.25 ± 0.7 h.
`O=C(O)[C@H]1O[C@@H](Oc2cc3oc(-c4ccc(O)cc4)cc(=O)c3c(O)c2O)[C@H](O)[C@@H](O)[C@@H]1O` [Scutellarin, scutellarin]: the Tmax in data set [2] (female, SD, FDH: 600 mg/kg BW freeze-dried HCT extract) was found to be 1.5 h. In data set [2] (setting [4]), this compound gave an AUC of 0.121 ± 0.00462 µM·h, a Cmax of 22 ± 4.15 nM and a half-life of 9.26 ± 4.35 h. In addition, in data set [2] (setting [5]), the exposure (AUC) came out at 0.116 ± 0.00702 µM·h, the peak level (Cmax) was 23.9 ± 3.17 nM and the half-life is 6.91 ± 0.65 h.
As to `COc1c(O)cc2oc(-c3ccc(O)cc3)cc(=O)c2c1O` [M18, hispidulin], in data set [1], the “Metabolite detected in Serum, FDH” value is on record as “+”.
In the case of `O=c1c(O)c(-c2ccc(O)c(O)c2)oc2cc(O)cc(O)c12` [Quercetin, quercetin], the figures for the maximum concentration (Cmax) in data set [2] (setting [6]) and in data set [2] (setting [5]) were 378 ± 21.4 nM and 410 ± 12 nM, respectively. For the same compound, the T1/2 in data set [2] (setting [6]) was 7.28 ± 4.47 h; in data set [2] (FDH: 600 mg/kg BW freeze-dried HCT extract), 4.46 ± 0.14 h. In data set [2] (setting [3]), the Tmax worked out at 2 h. The AUC in data set [2] (setting [4]) was found to be 2.32 ± 0.0574 µM·h; in data set [2] (setting [5]), 2.551 ± 0.017 µM·h.
Take `C[C@@H]1O[C@@H](OC[C@H]2O[C@@H](Oc3c(-c4ccc(O)c(O)c4)oc4cc(O)cc(O)c4c3=O)[C@H](O)[C@@H](O)[C@@H]2O)[C@H](O)[C@H](O)[C@H]1O` [Rutin, rutin]: the Tmax in data set [2] (setting [3]) came to 1 h. Further, in data set [2] (setting [4]), the AUC amounted to 0.277 ± 0.0123 µM·h, the peak level (Cmax) was 125 ± 4.95 nM and the half-life was 2.04 ± 0.5 h. In data set [2] (setting [5]), this compound gave an area under the curve (AUC) of 0.328 ± 0.00568 µM·h, a Cmax of 136 ± 16 nM and a half-life of 2.61 ± 1.23 h.
